Assay results: patent US12428446B2, “Peptide compound or pharmaceutically acceptable salt thereof” (Eyebio Korea, priority 2019, dated 2025)
Where no end group is shown, it is not given here. [ ]: non-standard residue; d: D form. Pro(cis-4-F) = O=C(O)[C@@H]1C[C@H](F)CN1; Hyp = O=C(O)[C@@H]1C[C@@H](O)CN1

How the values were obtained:
[1] = Evaluation of dissolution stability (content change on storage in dissolved state); assay type: physicochemical; settings: 1 mg/1 ml dissolved state, 40° C. and RH 75%
[2] = system: IL-1β secretion, Raw 264.7 cells; assay: Anti-inflammatory efficacy: IL-1β ELISA in LPS-stimulated Raw 264.7 macrophages; assay type: cell-based, mouse; settings: for IL-1β level increased by LPS: 1 h pretreatment, LPS 1 μg/ml 24 h; for anti-inflammatory effect by regulating the secretion of IL-1β: summary, concentration not given
Description: (§1) An anti-inflammatory efficacy was evaluated for representative examples of the above examples. Specifically, in order to confirm whether Examples 10, 32, 41, 55, 59 and 91, which are representative examples of 5 amino acid residues, Examples 11 and 30, which are representative examples of 6 amino acid residues, Example 86, which is a representative example of 7 amino acid residues, and Examples 103 and 104, which are representative examples of 8 amino acid residues, have an anti-inflammatory effect, a change in the secretion amount of inflammatory cytokines was confirmed by enzyme-linked immunosorbent assay (ELISA) using Raw 264.7 cells, which are macrophage (monocyte) cell lines.
(§2) Specifically, the Examples were diluted in Raw264.7 cells (Korean Cell Line Bank, 40071) at a concentration of 10 nM, 100 nM, 1 μM, and 10 μM, respectively, and pretreated for 1 hour, and then LPS (Sigma, L6529) at a concentration of 1 μg/ml was added to induce an inflammatory response. After 24 hours of induction, the cell culture supernatant was collected and analyzed. Enzyme-linked immunosorbent assay was performed using Mouse IL-6 Quantikine ELISA Kit (R&D systems, M6000B), TNF-alpha Quantikine ELISA Kit (R&D systems, MTA00B), Mouse IL-1 beta/IL-1F2 Quantikine ELISA Kit (R&D systems, MLB00C) in accordance with the manufacturer's manual.

[3] = system: IL-6 secretion, Raw 264.7 cells; assay: Anti-inflammatory efficacy: IL-6 ELISA in LPS-stimulated Raw 264.7 macrophages; assay type: cell-based, mouse; settings: for anti-inflammatory activity by regulating the secretion of IL-6: summary, concentration not given; for IL-6 level increased by LPS: 1 h pretreatment, LPS 1 μg/ml 24 h
Description: as §1, §2

Substance	Day 1 content (%) [1] [%]	Day 3 content (%) [1] [%]	Day 7 content (%) [1] [%]	Initial content (%) [1] [%]	IL-1β level increased by LPS ([2]; 10 nM peptide)	IL-1β level increased by LPS ([2]; 100 nM peptide)	IL-1β level increased by LPS ([2]; 1 μM peptide)	anti-inflammatory effect by regulating the secretion of IL-1β [2]	anti-inflammatory activity by regulating the secretion of IL-6 [3]	IL-1β level increased by LPS ([2]; 10 μM peptide)	IL-6 level increased by LPS ([3]; 1 μM peptide)	IL-6 level increased by LPS ([3]; 10 nM peptide)
Hyp-Gly-Gln-Asp-Leu ([Hyp]GQDL) [Example 32]	96.81	93.57	90.50	98.05	significantly reduced	significantly reduced	significantly reduced	significant anti-inflammatory effect	significant anti-inflammatory activity	–	–	–
Hyp-Gly-Gln-Glu-Val ([Hyp]GQEV) [Example 91]	99.10	98.74	98.68	99.08	reduced	reduced	reduced	significant anti-inflammatory effect	significant anti-inflammatory activity	reduced	significantly reduced	–
cis-4F-Pro-Gly-Gln-Asp-Gly ([Pro(cis-4-F)]GQDG) [Example 41]	93.20	91.07	85.34	96.95	–	significantly reduced	–	significant anti-inflammatory effect	significant anti-inflammatory activity	–	significantly reduced	–
QDGLAG [Example 30]	95.61	94.27	91.57	96.44	–	–	–	–	significant anti-inflammatory activity	–	–	significantly reduced
